Measured values from patent US6831092B1 (priority 1999, dated 2004).
Like-named read-outs stand apart in the source and are kept apart here.

Columns and labels:
[1] = tested on: fungi of tomato late blight; assay type: in vivo, fungi of tomato late blight on tomato (cultivar: Ponderosa)
[2] = tested on: fungi of cucumber downy mildew; experiment: Test on preventive effect against cucumber downy mildew; assay type: in vivo, fungi of cucumber downy mildew on cucumber (cultivar: Suyo)
Text: Test on Preventive Effect Against Cucumber Downy Mildew
Cucumber (cultivar: Suyo) was cultivated in a polyethylene pot having a diameter of 7.5 cm, and when the cucumber reached a two-leaf stage, two seedlings of the cucumber were sprayed with a drug solution having predetermined concentrations of sample compounds in an amount of 1, 000 l/ha by a spray gun. On the next day after the treatment, the cucumber was sprayed and inoculated with a zoosporangia suspension of fungi of cucumber downy mildew, and the cucumber was kept in a moist chamber at 20° C. for 18 hours. Then, it was kept in a constant temperature chamber of 20° C. for from 6 to 7 days, and the average area of lesions on the first leaves of the two seedlings was examined to find the incidence according to the following formula. Here, the average area of lesions in the non-treated plot was obtained in the same manner as the treated plot, except that the cucumber was sprayed with water instead of the drug solution by a spray gun. […]
a: Average area of lesions in the treated plot b: Average area of lesions in the non-treated plot
Further, the theoretical value can be calculated from the following Colby's formula:
Theoretical value=(X×Y)/100
X: Incidence (%) in the case of treatment with the compound No. 1 alone Y: Incidence (%) in the case of treatment with the compound a, b, c or d alone When the experimental values are lower than the theoretical values by Colby's formula, the pesticidal composition of the present invention has a synergistic effect of controlling pests. The theoretical values by Colby's formula in such cases are shown in parenthesis ( ) in Tables 1 to 4.

In the case of `Cc1ccc(C(C)NC(=O)[C@@H](NC(=O)OC(C)C)C(C)C)cc1` (stereo partly drawn) [Compd. b, isopropyl 2-methyl-1-((1-p-tolylethyl)carbamoyl)-(S)-propylcarbamate], the “Incidence of tomato late blight” value ([1]; Compd. b 1 ppm alone (Compd. No. 1 0 ppm), Table 6) is reported as 100%, the “Incidence of tomato late blight” value ([1]; Compd. b 4 ppm alone (Compd. No. 1 0 ppm), Table 6) is reported as 71.9% and the “Incidence of tomato late blight” value ([1]; Compd. b 8 ppm alone (Compd. No. 1 0 ppm), Table 6) is reported as 46.9%. The “Incidence of cucumber downy mildew” value ([2]; Compd. b 2 ppm alone (Compd. No. 1 0 ppm), Table 2) was 87.6%, the “Incidence of cucumber downy mildew” value ([2]; Compd. b 4 ppm alone (Compd. No. 1 0 ppm), Table 2) was 67.0% and the “Incidence of cucumber downy mildew” value ([2]; Compd. b 8 ppm alone (Compd. No. 1 0 ppm), Table 2) was 46.4%. For the same compound, the “Incidence of cucumber downy mildew” value ([2]; Compd. b 16 ppm alone (Compd. No. 1 0 ppm), Table 2) was 15.5%.

With `Cc1ccc(-c2c(Cl)nc(C#N)n2S(=O)(=O)N(C)C)cc1` [Compd. No. 1, 4-chloro-2-cyano-1-dimethylsulfamoyl-5-(4-methylphenyl)imidazole] the “Incidence of tomato late blight” value ([1]; Compd. No. 1 0.062 ppm alone (Compd. a 0 ppm), Table 5) was 91.3%, the “Incidence of tomato late blight” value ([1]; Compd. No. 1 0.062 ppm alone (Compd. b 0 ppm), Table 6) was 90.6% and the “Incidence of tomato late blight” value ([1]; Compd. No. 1 0.062 ppm alone (Compd. c 0 ppm), Table 7) was 65.6%. For the same compound, the “Incidence of tomato late blight” value ([1]; Compd. No. 1 0.125 ppm alone (Compd. c 0 ppm), Table 7) was 37.5%, the “Incidence of tomato late blight” value ([1]; Compd. No. 1 0.125 ppm alone (Compd. d 0 ppm), Table 8) was 100% and the “Incidence of tomato late blight” value ([1]; Compd. No. 1 0.25 ppm alone (Compd. a 0 ppm), Table 5) was 25.6%. The “Incidence of tomato late blight” value ([1]; Compd. No. 1 0.25 ppm alone (Compd. b 0 ppm), Table 6) was 78.1%, the “Incidence of tomato late blight” value ([1]; Compd. No. 1 0.25 ppm alone (Compd. c 0 ppm), Table 7) was 21.9% and the “Incidence of tomato late blight” value ([1]; Compd. No. 1 0.25 ppm alone (Compd. d 0 ppm), Table 8) was 100%. For the same compound, the “Incidence of tomato late blight” value ([1]; Compd. No. 1 0.50 ppm alone (Compd. b 0 ppm), Table 6) was 50.0%, the “Incidence of tomato late blight” value ([1]; Compd. No. 1 0.50 ppm alone (Compd. c 0 ppm), Table 7) was 6.3% and the “Incidence of tomato late blight” value ([1]; Compd. No. 1 0.5 ppm alone (Compd. d 0 ppm), Table 8) was 83.4%. The “Incidence of tomato late blight” value ([1]; Compd. No. 1 1.125 ppm alone (Compd. a 0 ppm), Table 5) was 69.2%, the “Incidence of tomato late blight” value ([1]; Compd. No. 1 1.125 ppm alone (Compd. b 0 ppm), Table 6) was 87.5% and the “Incidence of cucumber downy mildew” value ([2]; Compd. No. 1 0.06 ppm alone (Compd. d 0 ppm), Table 4) was 85%. The “Incidence of cucumber downy mildew” value ([2]; Compd. No. 1 0.062 ppm alone (Compd. a 0 ppm), Table 1) was 87.6%, the “Incidence of cucumber downy mildew” value ([2]; Compd. No. 1 0.062 ppm alone (Compd. b 0 ppm), Table 2) was 84.6% and the “Incidence of cucumber downy mildew” value ([2]; Compd. No. 1 0.062 ppm alone (Compd. c 0 ppm), Table 3) was 25.4%. The “Incidence of cucumber downy mildew” value ([2]; Compd. No. 1 0.125 ppm alone (Compd. a 0 ppm), Table 1) was 20.5%, the “Incidence of cucumber downy mildew” value ([2]; Compd. No. 1 0.125 ppm alone (Compd. b 0 ppm), Table 2) was 56.7% and the “Incidence of cucumber downy mildew” value ([2]; Compd. No. 1 0.125 ppm alone (Compd. c 0 ppm), Table 3) was 2.5%. For the same compound, the “Incidence of cucumber downy mildew” value ([2]; Compd. No. 1 0.25 ppm alone (Compd. a 0 ppm), Table 1) was 5.1%, the “Incidence of cucumber downy mildew” value ([2]; Compd. No. 1 0.25 ppm alone (Compd. c 0 ppm), Table 3) was 2.5% and the “Incidence of cucumber downy mildew” value ([2]; Compd. No. 1 0.25 ppm alone (Compd. d 0 ppm), Table 4) was 5.0%. The “Incidence of cucumber downy mildew” value ([2]; Compd. No. 1 0.5 ppm alone (Compd. d 0 ppm), Table 4) was 2.5% and the “Incidence of cucumber downy mildew” value ([2]; Compd. No. 1 1 ppm alone (Compd. d 0 ppm), Table 4) was 0%.

For `CCNc1nc(CC)c(C(=O)NC(C#N)c2cccs2)s1` (centres unmarked) [Compd. d, N-(a-cyano-2-thienyl)-4-ethyl-2-(ethylamino)-5-thiazole carboxyamide], the “Incidence of tomato late blight” value ([1]; Compd. d 4 ppm alone (Compd. No. 1 0 ppm), Table 8) was 75%, the “Incidence of tomato late blight” value ([1]; Compd. d 8 ppm alone (Compd. No. 1 0 ppm), Table 8) was 29.2% and the “Incidence of tomato late blight” value ([1]; Compd. d 16 ppm alone (Compd. No. 1 0 ppm), Table 8) was 16.5%. For the same compound, the “Incidence of cucumber downy mildew” value ([2]; Compd. d 1 ppm alone (Compd. No. 1 0 ppm), Table 4) was 100%, the “Incidence of cucumber downy mildew” value ([2]; Compd. d 8 ppm alone (Compd. No. 1 0 ppm), Table 4) was 15% and the “Incidence of cucumber downy mildew” value ([2]; Compd. d 16 ppm alone (Compd. No. 1 0 ppm), Table 4) was 20%.

`CCC(C)(NC(=O)c1cc(Cl)c(C)c(Cl)c1)C(=O)CCl` (centres unmarked) [Compd. c, 3.5-dichloro-N-(3-chloro-1-ethyl-1-methyl-2-oxopropyl)-4-methylbenzamide] was tested, and the “Incidence of tomato late blight” value ([1]; Compd. c 1 ppm alone (Compd. No. 1 0 ppm), Table 7) was 62.5%, the “Incidence of tomato late blight” value ([1]; Compd. c 4 ppm alone (Compd. No. 1 0 ppm), Table 7) was 62.5% and the “Incidence of tomato late blight” value ([1]; Compd. c 8 ppm alone (Compd. No. 1 0 ppm), Table 7) was 31.3%. The “Incidence of cucumber downy mildew” value ([2]; Compd. c 0.5 ppm alone (Compd. No. 1 0 ppm), Table 3) was 95.8%, the “Incidence of cucumber downy mildew” value ([2]; Compd. c 1 ppm alone (Compd. No. 1 0 ppm), Table 3) was 71.2% and the “Incidence of cucumber downy mildew” value ([2]; Compd. c 2 ppm alone (Compd. No. 1 0 ppm), Table 3) was 61.0%.

For `CSC1=N[C@@](C)(c2ccccc2)C(=O)N1Nc1ccccc1` [Compd. a, (S)-5-methyl-2-methylthio-5-phenyl-3-phenylamino-3.5-dihydroimidazole-4-one], the “Incidence of tomato late blight” value ([1]; Compd. a 0.062 ppm alone (Compd. No. 1 0 ppm), Table 5) was 100%, the “Incidence of tomato late blight” value ([1]; Compd. a 0.125 ppm alone (Compd. No. 1 0 ppm), Table 5) was 97.2% and the “Incidence of tomato late blight” value ([1]; Compd. a 0.25 ppm alone (Compd. No. 1 0 ppm), Table 5) was 94.4%. The “Incidence of tomato late blight” value ([1]; Compd. a 0.5 ppm alone (Compd. No. 1 0 ppm), Table 5) was 66.1%, the “Incidence of tomato late blight” value ([1]; Compd. a 1 ppm alone (Compd. No. 1 0 ppm), Table 5) was 53.5% and the “Incidence of cucumber downy mildew” value ([2]; Compd. a 0.25 ppm alone (Compd. No. 1 0 ppm), Table 1) was 82.1%. The “Incidence of cucumber downy mildew” value ([2]; Compd. a 0.5 ppm alone (Compd. No. 1 0 ppm), Table 1) was 66.7% and the “Incidence of cucumber downy mildew” value ([2]; Compd. a 1 ppm alone (Compd. No. 1 0 ppm), Table 1) was 12.8%.
